The record followed here is patent publication US20240158446A1, “CYCLIC COMPOUND HAVING SELECTIVE INHIBITORY ACTION ON KRAS OVER HRAS AND NRAS” (CHUGAI SEIYAKU KABUSHIKI KAISHA, priority 2021, published 2024).

Where a SMILES comes first, the peptide text is derived from it. Bridges are numbered along the chain shown (N, C = ends). [ ]: non-standard residue; d: D form. The star is where a group is joined. hPhe(3-Cl-4-CF3) = N[C@@H](CCc1ccc(C(F)(F)F)c(Cl)c1)C(=O)O; NPrPhe(4-CF3) = CCCN[C@@H](Cc1ccc(C(F)(F)F)cc1)C(=O)O; NEtPhe(4-CF3) = CCN[C@@H](Cc1ccc(C(F)(F)F)cc1)C(=O)O; hPhe(3,4-Cl2) = N[C@@H](CCc1ccc(Cl)c(Cl)c1)C(=O)O; NMeGly(cPent) = CN[C@H](C(=O)O)C1CCCC1; cisHyp = O=C(O)[C@@H]1C[C@H](O)CN1; Hyp = O=C(O)[C@@H]1C[C@@H](O)CN1; NMeD = CN[C@@H](CC(=O)O)C(=O)O; NMeL = CN[C@@H](CC(C)C)C(=O)O; hPip = O=C(O)[C@@H]1CCCCCN1; Ac6c = NC1(C(=O)O)CCCCC1; Morpholide = C1CN(*)CCO1; NMeA = CN[C@@H](C)C(=O)O; Ac5c = NC1(C(=O)O)CCCC1; Aze = O=C(O)[C@@H]1CCN1; Ethyl(2,2-F2) = FC(F)C*; Sar = CNCC(=O)O

What is called Kd is the constant that tells how readily two partners part at equilibrium.

Assay [1] addresses GDP-bound KRAS wild-type protein (Homo sapiens, UniProt P01116). As to the kind of experiment: Binding to KRAS by surface plasmon resonance (SPR), Single Cycle Kinetics. The settings on record: SPR Single Cycle Kinetics, GDP-bound KRAS wild-type protein, 1:1 binding model; read-out: KRAS KD. For orientation: In SPR one partner is held on a chip, and binding of the other changes the refractive index at the surface.

Assay [2] concerns the target GDP-bound NRAS wild-type protein (Homo sapiens, UniProt P01111). As to the kind of experiment: Binding to NRAS by surface plasmon resonance (SPR), Single Cycle Kinetics. Conditions: SPR, GDP-bound NRAS wild-type protein vs GDP-bound KRAS wild-type protein.
In assay [3] the target is GDP-bound HRAS wild-type protein (Homo sapiens, UniProt P01112). As to the kind of experiment: Binding to HRAS by surface plasmon resonance (SPR), Single Cycle Kinetics. The settings on record: SPR, GDP-bound HRAS wild-type protein vs GDP-bound KRAS wild-type protein.
GDP-bound HRAS wild-type protein, sequence (P01112 whole entry): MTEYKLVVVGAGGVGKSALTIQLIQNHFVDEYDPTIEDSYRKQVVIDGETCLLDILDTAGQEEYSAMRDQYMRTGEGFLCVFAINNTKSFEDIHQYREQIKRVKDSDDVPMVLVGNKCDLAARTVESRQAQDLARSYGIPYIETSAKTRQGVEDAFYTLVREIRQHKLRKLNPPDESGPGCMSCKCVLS

GDP-bound KRAS wild-type protein, sequence (P01116 whole entry): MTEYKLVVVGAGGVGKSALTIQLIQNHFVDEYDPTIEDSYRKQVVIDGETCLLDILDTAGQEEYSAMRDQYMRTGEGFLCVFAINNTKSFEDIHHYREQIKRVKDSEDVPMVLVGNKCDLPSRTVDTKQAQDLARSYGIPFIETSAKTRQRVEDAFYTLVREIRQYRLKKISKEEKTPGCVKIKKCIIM
GDP-bound NRAS wild-type protein, sequence (P01111 whole entry): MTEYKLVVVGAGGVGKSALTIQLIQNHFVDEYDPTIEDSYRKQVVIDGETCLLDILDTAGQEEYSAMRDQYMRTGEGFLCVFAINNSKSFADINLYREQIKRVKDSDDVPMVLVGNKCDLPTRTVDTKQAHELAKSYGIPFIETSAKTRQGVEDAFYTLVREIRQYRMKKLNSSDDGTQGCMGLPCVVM

For `CCCN1C(=O)CN(C)C(=O)CN(C)C(=O)[C@H]([C@@H](C)CC)NC(=O)[C@H](CC(C)C)N(C)C(=O)C[C@@H](C(=O)N2CCOCC2)N(C)C(=O)[C@H](C2CCCC2)N(C)C(=O)C2(CCCC2)NC(=O)[C@@H]2C[C@@H](OCC)CN2C(=O)[C@H](CCc2ccc(C(F)(F)F)c(Cl)c2)NC(=O)CN(C)C(=O)[C@@H]1Cc1ccc(C(F)(F)F)cc1` [PP0233] ([NMeL]I[Sar][Sar][NPrPhe(4-CF3)][Sar][hPhe(3-Cl-4-CF3)][Hyp](Et)[Ac5c][NMeGly(cPent)][NMeD]-Morpholide; lactam N-11), the Kd in assay [1] came to 0.052 nM. The “NRAS/KRAS (ratio of KD value for NRAS to KD value for KRAS)” value in assay [2] was “B (a compound having 3 or more and less than 10 is denoted as B)”. Further, in assay [3], the “HRAS/KRAS (ratio of KD value for HRAS to KD value for KRAS)” value is “C (A compound having a KD ratio of 0.1 or more and less than 3 is denoted as C)”.

Consider `CC[C@H](C)[C@@H]1NC(=O)[C@H](CC(C)C)N(C)C(=O)C[C@@H](C(=O)N2CCOCC2)N(C)C(=O)[C@H](C2CCCC2)N(C)C(=O)C2(CCCCC2)NC(=O)[C@@H]2CCCN2C(=O)[C@H](CCc2ccc(C(F)(F)F)c(Cl)c2)NC(=O)CN(C)C(=O)[C@H](Cc2ccc(C(F)(F)F)cc2)N(CC)C(=O)CN(C)C(=O)CN(C)C1=O` [PP0236] ([NMeL]I[Sar][Sar][NEtPhe(4-CF3)][Sar][hPhe(3-Cl-4-CF3)]P[Ac6c][NMeGly(cPent)][NMeD]-Morpholide; lactam N-11), for which, in assay [1], the Kd stood at 0.54 nM. Moreover, in assay [2], the “NRAS/KRAS (ratio of KD value for NRAS to KD value for KRAS)” value is “B (a compound having 3 or more and less than 10 is denoted as B)”. Also, the “HRAS/KRAS (ratio of KD value for HRAS to KD value for KRAS)” value in assay [3] is “C (A compound having a KD ratio of 0.1 or more and less than 3 is denoted as C)”.

In the case of `CC[C@H](C)[C@@H]1NC(=O)[C@H](CC(C)C)N(C)C(=O)C[C@@H](C(=O)N2CCOCC2)N(C)C(=O)[C@H](C2CCCC2)N(C)C(=O)C2(CCCC2)NC(=O)[C@@H]2CCCN2C(=O)[C@H](CCc2ccc(Cl)c(Cl)c2)NC(=O)CN(C)C(=O)[C@H](Cc2ccc(C(F)(F)F)cc2)N(CC)C(=O)CN(C)C(=O)CN(C)C1=O` [PP0237] ([NMeL]I[Sar][Sar][NEtPhe(4-CF3)][Sar][hPhe(3,4-Cl2)]P[Ac5c][NMeGly(cPent)][NMeD]-Morpholide; lactam N-11), the Kd in assay [1] was 0.28 nM. Also, the “NRAS/KRAS (ratio of KD value for NRAS to KD value for KRAS)” value in assay [2] is “B (a compound having 3 or more and less than 10 is denoted as B)”. Moreover, the “HRAS/KRAS (ratio of KD value for HRAS to KD value for KRAS)” value in assay [3] was “C (A compound having a KD ratio of 0.1 or more and less than 3 is denoted as C)”.

As to `CCCN1C(=O)[C@@H]2CCN2C(=O)[C@H](C)N(C)C(=O)[C@H]([C@@H](C)CC)NC(=O)[C@H](CC(C)C)N(C)C(=O)C[C@@H](C(=O)N2CCOCC2)N(C)C(=O)[C@H](C2CCCC2)N(C)C(=O)C2(CCCC2)NC(=O)[C@@H]2C[C@@H](O)CN2C(=O)[C@H](CCc2ccc(C(F)(F)F)c(Cl)c2)NC(=O)CN(C)C(=O)[C@@H]1Cc1ccc(C(F)(F)F)cc1` [PP0239], the equilibrium dissociation constant (Kd) in assay [1] was 0.05 nM. In assay [2], the “NRAS/KRAS (ratio of KD value for NRAS to KD value for KRAS)” value was “C (A compound having a KD ratio of 0.1 or more and less than 3 is denoted as C)”. Also, the “HRAS/KRAS (ratio of KD value for HRAS to KD value for KRAS)” value in assay [3] is “B (a compound having 3 or more and less than 10 is denoted as B)”.

For the molecule `CCCN1C(=O)CN(C)C(=O)CN(C)C(=O)[C@H]([C@@H](C)CC)NC(=O)[C@H](CC(C)C)N(C)C(=O)C[C@@H](C(=O)N2CCOCC2)N(C)C(=O)[C@H](C2CCCC2)N(C)C(=O)C2(CCCC2)NC(=O)[C@@H]2C[C@@H](O)CN2C(=O)[C@H](CCc2ccc(C(F)(F)F)c(Cl)c2)NC(=O)CN(C)C(=O)[C@@H]1Cc1ccc(C(F)(F)F)cc1` [PP0241] ([NMeL]I[Sar][Sar][NPrPhe(4-CF3)][Sar][hPhe(3-Cl-4-CF3)][Hyp][Ac5c][NMeGly(cPent)][NMeD]-Morpholide; lactam N-11), the Kd in assay [1] is 0.052 nM. For the same molecule, the “NRAS/KRAS (ratio of KD value for NRAS to KD value for KRAS)” value in assay [2] is “B (a compound having 3 or more and less than 10 is denoted as B)”. Also, the “HRAS/KRAS (ratio of KD value for HRAS to KD value for KRAS)” value in assay [3] was “C (A compound having a KD ratio of 0.1 or more and less than 3 is denoted as C)”.

Regarding `CCCN1C(=O)[C@@H]2CCN2C(=O)[C@H](C)N(C)C(=O)[C@H]([C@@H](C)CC)NC(=O)[C@H](CC(C)C)N(C)C(=O)C[C@@H](C(=O)N2CCOCC2)N(C)C(=O)[C@H](C2CCCC2)N(C)C(=O)C2(CCCC2)NC(=O)[C@@H]2C[C@H](OCC)CN2C(=O)[C@H](CCc2ccc(C(F)(F)F)c(Cl)c2)NC(=O)CN(C)C(=O)[C@@H]1Cc1ccc(C(F)(F)F)cc1` [PP0242] ([NMeL]I[NMeA][Aze][NPrPhe(4-CF3)][Sar][hPhe(3-Cl-4-CF3)][cisHyp](Et)[Ac5c][NMeGly(cPent)][NMeD]-Morpholide; lactam N-11), the dissociation constant (Kd) in assay [1] was 0.2 nM. In assay [2], the “NRAS/KRAS (ratio of KD value for NRAS to KD value for KRAS)” value was “C (A compound having a KD ratio of 0.1 or more and less than 3 is denoted as C)”. Further, in assay [3], the “HRAS/KRAS (ratio of KD value for HRAS to KD value for KRAS)” value is “C (A compound having a KD ratio of 0.1 or more and less than 3 is denoted as C)”.

As to `CCCN1C(=O)CN(C)C(=O)CN(C)C(=O)[C@H]([C@@H](C)CC)NC(=O)[C@H](CC(C)C)N(C)C(=O)C[C@@H](C(=O)N2CCOCC2)N(C)C(=O)[C@H](C2CCCC2)N(C)C(=O)C2(CCCC2)NC(=O)[C@@H]2C[C@H](OCC)CN2C(=O)[C@H](CCc2ccc(C(F)(F)F)c(Cl)c2)NC(=O)CN(C)C(=O)[C@@H]1Cc1ccc(C(F)(F)F)cc1` [PP0243] ([NMeL]I[Sar][Sar][NPrPhe(4-CF3)][Sar][hPhe(3-Cl-4-CF3)][cisHyp](Et)[Ac5c][NMeGly(cPent)][NMeD]-Morpholide; lactam N-11), the equilibrium dissociation constant (Kd) in assay [1] was 0.31 nM. The “NRAS/KRAS (ratio of KD value for NRAS to KD value for KRAS)” value in assay [2] is “B (a compound having 3 or more and less than 10 is denoted as B)”. The “HRAS/KRAS (ratio of KD value for HRAS to KD value for KRAS)” value in assay [3] was “C (A compound having a KD ratio of 0.1 or more and less than 3 is denoted as C)”.

Turning to `CCCN1C(=O)CN(C)C(=O)CN(C)C(=O)[C@H]([C@@H](C)CC)NC(=O)[C@H](CC(C)C)N(C)C(=O)C[C@@H](C(=O)N2CCOCC2)N(C)C(=O)[C@H](C2CCCC2)N(C)C(=O)C2(CCCC2)NC(=O)[C@@H]2C[C@@H](OCC(F)F)CN2C(=O)[C@H](CCc2ccc(C(F)(F)F)c(Cl)c2)NC(=O)CN(C)C(=O)[C@@H]1Cc1ccc(C(F)(F)F)cc1` [PP0246] ([NMeL]I[Sar][Sar][NPrPhe(4-CF3)][Sar][hPhe(3-Cl-4-CF3)][Hyp](Ethyl(2,2-F2))[Ac5c][NMeGly(cPent)][NMeD]-Morpholide; lactam N-11), in assay [1], the dissociation constant Kd was 0.054 nM. In addition, in assay [2], the “NRAS/KRAS (ratio of KD value for NRAS to KD value for KRAS)” value is “B (a compound having 3 or more and less than 10 is denoted as B)”. The “HRAS/KRAS (ratio of KD value for HRAS to KD value for KRAS)” value in assay [3] is “C (A compound having a KD ratio of 0.1 or more and less than 3 is denoted as C)”.

With `CCCN1C(=O)CN(C)C(=O)CN(C)C(=O)[C@H]([C@@H](C)CC)NC(=O)[C@@H]2CCCCCN2C(=O)C[C@@H](C(=O)N2CCOCC2)N(C)C(=O)[C@H](C2CCCC2)N(C)C(=O)C2(CCCC2)NC(=O)[C@@H]2CCCN2C(=O)[C@H](CCc2ccc(C(F)(F)F)c(Cl)c2)NC(=O)CN(C)C(=O)[C@@H]1Cc1ccc(C(F)(F)F)cc1` [PP0247] ([hPip]I[Sar][Sar][NPrPhe(4-CF3)][Sar][hPhe(3-Cl-4-CF3)]P[Ac5c][NMeGly(cPent)][NMeD]-Morpholide; lactam N-11), in assay [1], the equilibrium dissociation constant (Kd) was 0.38 nM. Also, in assay [2], the “NRAS/KRAS (ratio of KD value for NRAS to KD value for KRAS)” value was “B (a compound having 3 or more and less than 10 is denoted as B)”. Further, in assay [3], the “HRAS/KRAS (ratio of KD value for HRAS to KD value for KRAS)” value is “C (A compound having a KD ratio of 0.1 or more and less than 3 is denoted as C)”.
